In the METLIN SMRT retention time set (Domingo-Almenara et al. 2019):

Assay: gradient 5% acetonitrile 3 min, to 50% in 2 min, to 85% in 15 min, held 3 min, 100 µL/min
Settings: column: Zorbax Extend-C18 2.1 x 50 mm; eluents: water / acetonitrile, 0.1% formic acid
Summary of the method: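 Pure standards were analyzed in mixtures of ~100 molecules using HPLC coupled to a quadrupole time-of-flight mass spectrometer, in both positive and negative ionization mode. Separation used a Zorbax Extend-C18 column (2.1 × 50 mm, 1.8 μm) at 100 μL/min, with water and acetonitrile each containing 0.1% formic acid. Dead and dwell volumes were 40 μL and 900 μL, and data were collected over 3 months. Retention time was read from computationally picked adduct peaks, each inspected manually.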

SMILES	RP-LC retention time [s]
CCN1C(=O)C2(CCN(S(=O)(=O)Cc3ccccc3)CC2)c2ccccc21	976
CCOC(=O)c1c(C)[nH]c(C(=O)N2CCC(CC(=O)N3CCN(C4CCCCC4)CC3)CC2)c1C	624
CCCc1noc(-c2cccnc2N2CCCN(Cc3ccc(F)cc3)CC2)n1	729
Cc1ccc(C(=O)Nc2ccc3c(c2)Sc2ncccc2C(=O)N3C(C)C)c(C)c1	962
CCc1nc2cc(-c3noc(-c4ccc(OC)nc4)n3)ccc2o1	1180
Clc1ccc(-c2ccc(CNc3ncn[nH]3)o2)c(Cl)c1	734
O=C(c1ccccc1)C1N=NCC1c1ccc(Cl)cc1 (stereo unspecified)	1040
O=C(N[C@H]1C[C@@H]2C[C@H]1N(C(=O)c1ccccc1C(F)(F)F)C2)c1ccccc1	778
NC(=O)c1cccc(Nc2c(-c3ccc(Cl)cc3)nc3cnccn23)c1	685
Cc1sc2c(c1C)C(c1ccc(Cl)cc1)=N[C@@H](CC(=O)Nc1ccc(O)cc1)c1nnc(C)n1-2	922
CN(C)C[C@@H]1CN(c2ncccn2)C[C@H]1NC(=O)C1(C)CCOCC1	532
Cc1ccc(-c2noc(-c3ccc(=O)n(CC(=O)OC(C)C)n3)n2)cc1	1050
NS(=O)(=O)c1ccc(CCNC(=O)CCCn2cccc2)cc1	627
CCOC(=O)CCC(=O)Nc1nnc(-c2sc(C)nc2C)o1	621
CCC(=O)N1CCC(Oc2nccnc2N2CCOCC2)C1 (stereo unspecified)	646
Fc1cccc(Cn2cc(-c3noc(-c4ccccc4)n3)nn2)c1	986
O=C(CSc1n[nH]c(-c2ccc(F)cc2)n1)Nc1ccc(F)cc1F	853
Clc1cc(-c2nc(-c3cccc(-c4ccn[nH]4)c3)no2)ccn1	949
COc1ccc(-c2nc3cnccn3c2Nc2ccc(Cl)cc2)cc1	896
Brc1ccc(C(c2nnc(-c3ccccc3)o2)N2CCN(c3ncccn3)CC2)cc1 (stereo unspecified)	1170
Cc1ccc(-c2nc(Nc3ccc(Br)cc3)sc2CC(=O)O)c(C)c1	1090
O=C1CCC(CCNS(=O)(=O)c2cc(Cl)ccc2Cl)CCN1CC1CC1 (stereo unspecified)	897
Cc1nc(Cn2cccc2C(=O)Nc2ccc(C)c(C)c2)no1	910
CS(=O)(=O)Nc1ccc(-c2noc(-c3cncc(Br)c3)n2)cc1	877
C=CCN1C(=O)COc2ccc(-c3nc(NC(=O)C(CC)CC)sc3C)cc21	1050
CCCNC(=O)N1CCCCCC1CN1CCC(C)CC1 (stereo unspecified)	624
Cc1cc(NC(=O)CSc2nnc(C(C)C)c3cnn(-c4ccc(C)c(C)c4)c23)no1	845

Next, values leading:

RP-LC retention time [s]	SMILES
1150	Cc1cccc(-c2nc(C3CCN(S(=O)(=O)c4ccccc4)CC3)no2)c1
819	CCCC(=O)Nc1ccc(OCc2cc(C(=O)NC(C)CC)no2)cc1 (stereo unspecified)
810	CCOC(=O)Cc1csc(NC(=O)C2CCCN(c3ncnc4c3nc3n4CCCCC3)C2)n1 (stereo unspecified)
888	CCC(C)NC(=O)NC1CCN(C2=NS(=O)(=O)C(c3ccc(C)c(C)c3)=C2C)CC1 (stereo unspecified)
927	O=C(NCc1csc(-c2cccs2)n1)C1CCN(S(=O)(=O)c2cccc(Cl)c2)CC1
876	CCOCCCNC(=O)c1c(N)n(-c2ccc(C(C)=O)cc2)c2nc3ccccc3nc12
826	O=C(NCC1CC1)C1CCN(c2nc3ccsc3c(=O)n2Cc2ccc(F)cc2)CC1
976	CCn1cc(C(=O)Nc2ccc(F)cc2)c(S(=O)(=O)N2CCSCC2)n1
832	COc1cccc(CNC(=O)N2CCCC2c2cc(C(C)C)on2)c1 (stereo unspecified)
676	O=C(CCC1CCCN(c2cc(NC3CC3)ncn2)C1)NCc1ccc(F)cc1 (stereo unspecified)
792	CCn1cc(C)c(C(=O)O)c1CC(=O)N(C)c1cccc(Cl)c1
693	COc1ccccc1NC(=O)c1[nH]c2cc(C)sc2c1CN1CCOCC1
897	COc1cc(OC)c(NC(=O)Cn2nc(C(=O)N3CCCC3)c3ccccc32)cc1Cl
873	COc1cc(CSc2nc(CC(=O)NCc3cccs3)cs2)cc(OC)c1
550	COc1cn(CC(=O)NCc2ccc(F)cc2)c(CN2CCC(C)CC2)cc1=O
1030	CC1(C(=O)NCc2ccccc2)CCCN(C(=O)Nc2ccc(Br)cc2F)C1 (stereo unspecified)
1060	O=C(C1CCC1)N1CCc2sc(S(=O)(=O)N3CCN(c4ccccc4)CC3)cc2C1
1000	COc1ccc(N2CC(c3noc(-c4ccc(C)cc4C)n3)CC2=O)cc1OC (stereo unspecified)
708	CC(=O)N1CCc2cc(N3CC(C(=O)NCc4ccccc4Cl)CC3=O)ccc21 (stereo unspecified)
597	CN1C(=O)c2cc(C(=O)NCCN3CCCCC3)nn2CC1(C)C(=O)NCc1ccccc1 (stereo unspecified)

RP-LC retention time [s]	SMILES
728	CCN1CCn2cc(S(=O)(=O)Nc3cccc(Cl)c3)cc2C1=O
1120	COc1ccc(NC(=O)c2cc(C)n3nc(-c4ccsc4)cc3n2)cc1
683	Cc1cc(C(=O)N2C[C@@H](F)C[C@H]2C(=O)N2CCc3ccccc3C2)n(C)n1
936	CCOc1ccc(NC(=O)Cn2c(=O)cc(-c3nc(CC)no3)c3ccccc32)cc1
824	CC(C)n1c(N2CCN(C(=O)Cc3c[nH]c4ccccc34)CC2)cc(=O)n(C(C)C)c1=O
627	CC1CCCN(c2ccc(NC(=O)C(C)C)c(C(=O)O)c2)C1 (stereo unspecified)
740	c1ccc(CN2CCc3c(sc4ncnc(N5CCOCC5)c34)C2)cc1
605	O=C(CN1CCN(C(=O)Nc2ccc(Cl)cc2)CC1=O)NC1CC1
924	CCn1cc(-c2nc(CC(=O)NCc3ccccc3Cl)cs2)c2cccnc21
615	CCn1c(=O)c(SCC(=O)NCCCN2CCCC(C)C2)nc2ccccc21 (stereo unspecified)
679	COc1ccc(CN2CCN(C(=O)C3=Cc4ccccc4OC3)CC2)c(OC)c1OC
601	CCCNC(=O)N1CCN(c2cc(-c3ccc(OC)c(OC)c3)ncn2)CC1
848	CCOc1ccccc1NC(=O)CN1CCN(Cc2ccc(C)cc2)C(=O)C1=O
1320	Cc1ccc(C)c(N2CCN(C(=O)C3CCN(c4nccnc4Sc4ccccc4)CC3)CC2)c1
745	COc1ccc(-c2c(C(=O)O)nnn2-c2ccc3c(c2)OCO3)cc1
997	CCCS(=O)(=O)N1CC(=O)N(c2ccccc2F)C(C)(C(=O)NC2CCCCCCC2)C1 (stereo unspecified)
668	COc1cccc(S(=O)(=O)N2CCN(c3cc(C)nc(N4CCOCC4)n3)CC2)c1
928	CC(C)n1cc(S(=O)(=O)NCc2cccc(Cl)c2)c2cccnc21
670	COCCN1CCn2cc(S(=O)(=O)Nc3cccc(OC)c3)cc2C1=O
